Reference: patent US20060058364A1, “Treatment of dependence and dependence related withdrawal symptoms” (priority 2002, published 2006)
Where two headings read alike, the source gives them in different places.

Key:
[1] = system: 5-HT1A receptors or 5-HT1D receptors; details: cited from earlier work
[2] = system: alpha1-adrenergic, dopaminergic, GABAergic, serotonergic (such as 5-HT1A) etc. receptors; details: cited from earlier work
[3] = system: atipamezole cue (atipamezole-associated lever selection); format: in vivo; details: for dose at which full generalization was achieved: training dose 1 mg/kg s.c.
Procedure: A total of 50 Sprague-Dawley male rats (B&K, Sweden) were used in the drug discrimination experiment at Orion Pharma, Turku, Finland. The rats were housed in solid bottom polypropylene cages with stainless steel mesh lids 5 rats per cage on a 12/12 hour light/dark cycle (lights on at 06.00 a.m.) under standard conditions in 21±1° C. temperature. […] During training period the rats were allowed food 6-15 g/day immediately after the session and during testing period they were allowed 12-15 g/day after the session. The rats adopted well to this feeding schedule and grew slowly but steadily. Rats were drug and experimentally naive at the start of the experiments. All experimentation was approved by the local laboratory animal care and experimentation committee. The animals were housed according to the recommendations of Declaration of Helsinki and DHEW pub. No (NIH) 85-23 entitled “Guide for the care and use of laboratory animals”.
The drugs used were atipamezole HCl and MPV-1730 HCl (Orion Pharma, Finland), d-amphetamine sulphate (Sigma, USA), cocaine HCl (Tamro, Finland)) and desipramine HCl (Sigma, USA). All doses refer to respective salt forms. Drugs were diluted in sterile purified water (Aquasteril, Orion Pharma, Finland) and were prepared daily. Injections were given 30 min before the sessions. Saline (Natrosteril, Orion Pharma, Finland) was used in control administrations. Drugs were administered subcutaneously (s.c.) or intraperiotoneally (i.p.) in a volume of 1 ml/kg or perorally (p.o.) gy a gavage 10 ml/kg.
In the atipamezole discrimination experiment five identical operant chambers enclosed in larger sound and light attenuating, fan ventilated enclosures were used. Each chamber was equipped with two identical levers on one wall. Between these levers was a food cup, where 45 mg reward pellets (F0021, Bio-Serv, Frenchtown, USA) could be presented. The whole operant system was purchased from Rhema-Labortechnik, Hofheim, Germany.
The training to press levers for reward pellets was started with 50 rats with a continuous reinforcement (CRF) schedule, when both levers were active and later by changing daily the active lever. […] The duration of the session to this point was 30 min and thereafter the training sessions were reduced to 15 min. The discrimination training dose of atipamezole (1 mg/kg s.c.) was selected according to the effect of atipamezole (0, 0.1, 0.3, 1 and 3 mg/kg s.c.) on FR-10 responding when tested in the rats (session 30, data not shown). Thereafter, discrimination training was started with 46 rats. The discrimination training was done in following two week sequence: S-D-D-S-S and D-S-S-D-D (D=drug appropriate lever, S=saline lever) (Colpaert F., Niemegeers, C., Janssen, P. Theoretical and methodological considerations on drug discrimination learning. Psychopharmacologia (Berl.) 46: 169-177, 1976.). For half of the rats the right lever was a drug-appropriate lever and for the another half the left lever. During training only the drug- or saline-appropriate lever was active, but both levers were recorded. If a rat chose the correct lever during ten consecutive sessions and the total number of responses before the first reinforcer was 15 or less, the rat was accepted to the drug tests.
When the rats had reached the criterion, they were tested twice a week (usually on Wednesdays and Fridays) with different drugs. The normal sequence of saline or atipamezole was continued on other days. The lever selection had to be correct on the preceding day of the drug test and on the next day after drug test in order to be approved in the results. In the testing day, the rat decided which lever was activated by pressing ten lever presses on either of the levers. The selected lever was activated during the rest of the session. The previous saline day was used as a predrug control value. […]

[4] = system: idazoxan cue; details: rats trained to discriminate idazoxan; cited from earlier work
[5] = system: psychostimulants such as amphetamine and cocaine (cue); details: rat, in vivo; cited from earlier work
[6] = system: amphetamine cue; details: rats trained to discriminate d-amphetamine; cited from earlier work
[7] = system: dopaminergic, 5-hydroxyhyptaminergic receptors and benzodiazepine receptors; details: cited from earlier work

COc1ccccc1N1CCN(CCN2C(=O)c3ccccc3C(C)(C)C2=O)CC1 [ARC 239]
affinity on 5-HT1A receptors or 5-HT1D receptors [1]: have affinity

CCC1(c2c[nH]cn2)Cc2ccccc2C1.Cl [Atipamezole, 4-(2-ethyl-2,3-dihydro-1H-inden-2-yl)-1H-imidazole hydrochloride]
affinity for any other neurotransmitter receptors [2]: negligible affinity
atipamezole-associated lever selection ([3]; 0.003-10 mg/kg, FIG. 1): dose-responsively increased
dose at which full generalization was achieved ([3]; atipamezole p.o., 60 min before session, FIG. 1): 1 mg/kg
dose at which full generalization was achieved ([3]; atipamezole s.c., 30 min before session, FIG. 1): 0.3 mg/kg

CC1c2ccccc2CN1CC1=NCCN1 (stereo not drawn) [BRL 44408]
affinity on 5-HT1A receptors or 5-HT1D receptors [1]: have affinity

CCC1(c2c[nH]cn2)Cc2ccc(F)cc2C1 (stereo not drawn) [MPV-1730, 4-(2-ethyl-5-fluoro-2,3-dihydro-1H-inden-2-yl)-1H-imidazole]
generalization to atipamezole cue ([3]; 0.01-1 mg/kg s.c., 30 min before session, FIG. 3): generalized to atipamezole cue

COC1(C2=NCCN2)COc2ccccc2O1 (stereo not drawn) [RX821002]
affinity on 5-HT1A receptors or 5-HT1D receptors [1]: have affinity

C[C@H](N)Cc1ccccc1 [d-amphetamine]
generalization to idazoxan [4]: did not generalize
generalization to atipamezole cue ([3]; s.c., tested 0.03-1 mg/kg, at doses 0.5 and 1 mg/kg, 30 min before session, FIG. 2): clearly generalized

COc1ccc2c(c1)CCN1C[C@H]3CCCN(S(C)(=O)=O)[C@H]3C[C@@H]21 [delequamine]
affinity on 5-HT1A receptors or 5-HT1D receptors [1]: have affinity

CNCCCN1c2ccccc2CCc2ccccc21 [desipramine]
generalization to atipamezole ([3]; i.p., 30 min before session, FIG. 4): not generalized
tolerability of higher doses ([3]; rat, in vivo): discontinued due to a prolonged lack of appetite
generalisation to psychostimulants [5]: only weakly

c1ccc2c(c1)OCC(C1=NCCN1)O2 (stereo not drawn) [idazoxan]
generalization to amphetamine [6]: did not generalize
affinity on 5-HT1A receptors or 5-HT1D receptors [1]: have affinity

COC(=O)[C@@H]1[C@H]2C[C@H]3c4[nH]c5ccccc5c4CCN3C[C@@H]2CC[C@@H]1O [yohimbine]
affinity to other than noradrenergic receptors [7]: has affinity
generalization to amphetamine [6]: did not generalize
